The source of these data is ChEMBL document CHEMBL1201862, “PubChem BioAssay data set” (2004).

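Compound exposure: 48 hours, 5 concentrations, 96-well plates. Abbreviation: GI50, concentration required for 50% inhibition of growth.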 Active and inactive are the calls of the source. No stated cut-off is given here; in the data, active = GI50 up to about 1.1 µM and inactive = higher. Where only a bound is given, the exact number is not on record here.

Some test systems named below: DU-145; CAKI-1; A498; MDA-MB-231; NCI-H226; LOX IMVI; RXF 393; HL-60; SF-539; U-251; T47D; Hs-578T; UO-31; SK-OV-3; CCRF-CEM; SK-MEL-5; SW-620; HCC 2998; HCT-15; SR.
Assay in all cases: NCI-60 cell line screen, 48 h

In the case of `c1ccc2c(c1)Cn1c-2nc2ccccc21`, the GI50 with DU-145 is 23.9 µM (inactive); in the assay with CAKI-1, > 100 µM (inactive); in the assay on A498 it was > 100 µM (inactive); in the assay on MDA-MB-231 it was > 100 µM (inactive); in the assay with NCI-H226, 61.7 µM (inactive); with LOX IMVI, > 100 µM (inactive). Besides, the GI50 is 82 µM (inactive) in the assay on RXF 393; > 100 µM (inactive) in the assay with HL-60; > 100 µM (inactive) in the assay with SF-539; > 100 µM (inactive) in the assay with U-251; > 100 µM (inactive) in the assay with T47D; > 100 µM (inactive) in the assay on Hs-578T. Besides, the GI50 in the assay with UO-31 was 4.83 µM (inactive); with SK-OV-3, > 100 µM (inactive); with CCRF-CEM, > 100 µM (inactive); in the assay on SK-MEL-5, 42.4 µM (inactive); in the assay with SW-620, > 100 µM (inactive); with HCC 2998, > 100 µM (inactive). For the same compound, in the assay on HCT-15, the GI50 was 94.4 µM.

Turning to `CCOC(=O)c1c(SCCN2CCCC2)n(-c2ccccc2)c(=S)n(-c2ccccc2)c1=O`, the GI50 was 1.68 µM (inactive) with DU-145; 2.29 µM (inactive) with CAKI-1; 10.4 µM (inactive) in the assay on A498; 2.08 µM (inactive) in the assay on MDA-MB-231; 16.8 µM (inactive) in the assay on NCI-H226; 1.82 µM (inactive) in the assay on LOX IMVI. Besides, the GI50 was 1.74 µM (inactive) in the assay on RXF 393; 2.38 µM (inactive) in the assay on SF-539; 6.14 µM (inactive) in the assay with U-251; 2.72 µM (inactive) in the assay on T47D; 4.7 µM (inactive) in the assay with Hs-578T; 18.1 µM (inactive) in the assay on SK-OV-3. Moreover, the GI50 was 0.951 µM (active) in the assay on CCRF-CEM; 3.07 µM (inactive) in the assay on SK-MEL-5; 2.6 µM (inactive) with SW-620; 1.87 µM (inactive) in the assay with HCC 2998; 2.21 µM in the assay with HCT-15; 0.457 µM (active) in the assay on SR.

`Cc1cnc2sn(-c3ccc([N+](=O)[O-])cc3)c(=O)c2c1`: the GI50 in the assay on DU-145 is 99.3 µM (inactive); in the assay with MDA-MB-231, 82.2 µM (inactive); in the assay with NCI-H226, > 100 µM (inactive); with LOX IMVI, 72.6 µM (inactive); with U-251 it was 30.1 µM (inactive); with T47D, > 100 µM (inactive). In addition, the GI50 with Hs-578T was 53.5 µM (inactive); with UO-31, 74.6 µM (inactive); in the assay on SK-OV-3, 29 µM (inactive); in the assay on SK-MEL-5, > 100 µM (inactive); in the assay on SW-620, > 100 µM (inactive); in the assay on HCC 2998, > 100 µM (inactive). For the same compound, the results for the GI50 with HCT-15 and in the assay on SR were over 100 µM and > 100 µM (inactive), respectively.

Take `CCOC(=O)C1C(=O)C=C(c2cc(C)ccc2O)CC1c1cccc(Br)c1` (configuration not stated): the GI50 is 34.4 µM (inactive) in the assay with DU-145; 21.9 µM (inactive) in the assay with CAKI-1; 19.6 µM (inactive) with MDA-MB-231; 15.7 µM (inactive) in the assay on NCI-H226; 15.6 µM (inactive) in the assay with LOX IMVI; 14.4 µM (inactive) in the assay with RXF 393. The GI50 with HL-60 was 20.9 µM (inactive); with SF-539, 16.2 µM (inactive); in the assay on U-251 it was 16.1 µM (inactive); with T47D it was 18.6 µM (inactive); in the assay on Hs-578T, 14.8 µM (inactive); with UO-31, 20.9 µM (inactive). Moreover, the GI50 in the assay on SK-OV-3 was 14.2 µM (inactive); with CCRF-CEM, 19.4 µM (inactive); in the assay with SK-MEL-5, 14.2 µM (inactive); in the assay with SW-620, 25 µM (inactive); in the assay on HCC 2998, 17.9 µM (inactive); with HCT-15, 3.24 µM. In addition, in the assay on SR, the GI50 was 5.13 µM (inactive).

As to `CCNc1nc(N)c(C(=O)c2cccs2)s1`, the GI50 was 8.99 µM (inactive) with DU-145; 8.69 µM (inactive) in the assay on CAKI-1; 31 µM (inactive) in the assay with A498; 50.4 µM (inactive) in the assay on MDA-MB-231; 24.2 µM (inactive) with NCI-H226; 18.4 µM (inactive) in the assay on LOX IMVI. For the same compound, the GI50 in the assay on RXF 393 was 3.42 µM (inactive); in the assay on HL-60, 4.1 µM (inactive); in the assay on SF-539 it was 15.5 µM (inactive); in the assay on U-251 it was 22.5 µM (inactive); in the assay with T47D, 19.1 µM (inactive); in the assay on Hs-578T it was 38.1 µM (inactive). Also, the GI50 with UO-31 was 38 µM (inactive); in the assay on SK-OV-3, 36.4 µM (inactive); with SK-MEL-5, 18.1 µM (inactive); in the assay on SW-620 it was 8.59 µM (inactive); with HCC 2998 it was 34.3 µM (inactive); in the assay with HCT-15, 14.9 µM.

Take `C/N=c1/oc2ccccc2cc1C(N)=O`: the GI50 in the assay with DU-145, with CAKI-1, in the assay with MDA-MB-231, with NCI-H226, in the assay on LOX IMVI and with RXF 393 was > 100 µM (inactive) in each case. Also, the GI50 in the assay on HL-60 is > 100 µM (inactive); with SF-539, > 100 µM (inactive); with U-251, > 100 µM (inactive); in the assay on T47D, > 100 µM (inactive); in the assay on Hs-578T, 16.9 µM (inactive); in the assay with UO-31, 58.2 µM (inactive). Further, the GI50 with SK-OV-3 is > 100 µM (inactive); with CCRF-CEM, > 100 µM (inactive); in the assay with SK-MEL-5, > 100 µM (inactive); in the assay with SW-620 it was > 100 µM (inactive); in the assay with HCC 2998 it was > 100 µM (inactive); with HCT-15 it was over 100 µM. Further, the GI50 in the assay on SR was > 100 µM (inactive).

With `c1ccc(C(=NNc2nc3ccccc3[nH]2)c2ccccn2)nc1`, the GI50 in the assay with DU-145 was 0.268 µM (active); with CAKI-1 it was 0.102 µM (active); with A498, 0.36 µM (active); in the assay with MDA-MB-231, 0.166 µM (active); in the assay on NCI-H226, 0.0625 µM (active); with LOX IMVI it was 0.172 µM (active). In addition, the GI50 was 0.197 µM (active) in the assay on RXF 393; 0.177 µM (active) with SF-539; 0.171 µM (active) in the assay with U-251; 0.0131 µM (active) in the assay on T47D; 7.53 µM (inactive) in the assay on Hs-578T; 0.0847 µM (active) in the assay on UO-31. Also, the GI50 was 0.103 µM (active) in the assay on SK-OV-3; 0.0313 µM (active) with CCRF-CEM; 0.159 µM (active) with SK-MEL-5; 0.0698 µM (active) in the assay on SW-620; 15 µM (inactive) in the assay with HCC 2998; 0.115 µM with HCT-15. The GI50 in the assay with SR is 0.0371 µM (active).

`Cc1ccc(/N=C2/SC(c3ccc(C)cc3)(c3ccc(C)cc3)c3ccccc32)cc1`: the GI50 in the assay with DU-145, in the assay on CAKI-1, in the assay on A498, in the assay on MDA-MB-231, in the assay with NCI-H226 and in the assay on LOX IMVI was > 100 µM (inactive) in each case. Besides, the GI50 in the assay with RXF 393, in the assay on HL-60, in the assay with SF-539, in the assay with U-251, with T47D and in the assay with Hs-578T was > 100 µM (inactive) throughout. Moreover, the GI50 in the assay on UO-31, in the assay with SK-OV-3, with CCRF-CEM, with SK-MEL-5, in the assay on SW-620 and in the assay with HCC 2998 was > 100 µM (inactive) throughout. In the assay with HCT-15, the GI50 is over 100 µM.

Turning to `[N-]=[N+]=NC1CC(n2ccc(N)nc2=O)OC1COP(=O)(O)OP(=O)(O)OP(=O)(O)O` (configuration not stated), the GI50 with DU-145, with CAKI-1, with MDA-MB-231, in the assay on NCI-H226, in the assay with LOX IMVI and in the assay on RXF 393 was > 100 µM (inactive) in each case. Moreover, the GI50 in the assay on HL-60, in the assay with SF-539, with U-251, with T47D, in the assay with Hs-578T and in the assay on UO-31 was > 100 µM (inactive) throughout. The GI50 in the assay on SK-OV-3 was > 100 µM (inactive); in the assay on CCRF-CEM, > 100 µM (inactive); in the assay on SK-MEL-5, > 100 µM (inactive); in the assay with SW-620 it was > 100 µM (inactive); in the assay with HCC 2998 it was > 100 µM (inactive); with HCT-15 it was over 100 µM. Besides, in the assay on SR, the GI50 was > 100 µM (inactive).

With `Cc1cccc(/N=N/C(=N\NC(=O)c2cc(Cl)ccc2O)c2ccc(N(CCC#N)CCC#N)cc2C)c1`, the GI50 was 39.6 µM (inactive) with DU-145; 30.6 µM (inactive) in the assay with CAKI-1; 21.2 µM (inactive) with MDA-MB-231; 36 µM (inactive) with NCI-H226; 31 µM (inactive) in the assay on LOX IMVI; 30.4 µM (inactive) in the assay on RXF 393. In addition, the GI50 in the assay on HL-60 is 14.3 µM (inactive); with SF-539 it was 33.3 µM (inactive); with U-251, 36.1 µM (inactive); in the assay on T47D, 22.9 µM (inactive); in the assay with Hs-578T, 77.6 µM (inactive); in the assay with UO-31 it was 21.9 µM (inactive). Besides, the GI50 in the assay with SK-OV-3 was 35.7 µM (inactive); with CCRF-CEM, 8.79 µM (inactive); with SK-MEL-5, 34 µM (inactive); in the assay on SW-620, 46.7 µM (inactive); in the assay with HCC 2998, 28.5 µM (inactive); in the assay on HCT-15 it was 27.7 µM. Moreover, the GI50 with SR is 22.8 µM (inactive).

With `O=C(O)c1ccccc1CC1Cc2ccccc2C1`, the GI50 in the assay on DU-145, in the assay on CAKI-1, in the assay with MDA-MB-231, in the assay with NCI-H226, in the assay on LOX IMVI and with RXF 393 was > 100 µM (inactive) throughout. The GI50 in the assay on HL-60, in the assay on SF-539, in the assay with U-251, in the assay on T47D, in the assay with Hs-578T and with UO-31 was > 100 µM (inactive) in each case. The GI50 with SK-OV-3 was > 100 µM (inactive); in the assay on CCRF-CEM it was > 100 µM (inactive); in the assay on SK-MEL-5, > 100 µM (inactive); in the assay with SW-620, > 100 µM (inactive); with HCC 2998, > 100 µM (inactive); in the assay with HCT-15 it was over 100 µM. For the same compound, in the assay on SR, the GI50 is > 100 µM (inactive).
